Each structure is given as a SMILES string. Activity calls are given as the source filed them. The rule behind the calls is not given here.

Assay [1] deals with 3T3-L1. Kind of assay: Lipid lowering activity in mouse 3T3-L1 cells assessed as reduction in methylprednisolone-induced triglyceride levels at 1 uM incubated for 6 days by GPO-POD assay. It is filed as functional, cell-based. Conditions: time 6.0 day.
The subject of assay [2] is 3T3-L1. Nature of the assay: Inhibition of adipogenic cocktail-induced C/EBP-beta protein expression in mouse 3T3-L1 cells at 1 to 10 uM incubated for 0.5 hrs by Western blot analysis. It is filed as functional, cell-based. Conditions: dose 1-10 µM.
In assay [3] the test system is 3T3-L1. Nature of the assay: Inhibition of adipogenic cocktail-induced C/EBPdelta mRNA expression in mouse 3T3-L1 cells incubated for 24 hrs by RT-qPCR analysis. The class given is functional, cell-based. For orientation: In qPCR the cycle at which signal appears reflects the starting amount.
Assay [4] relates to 3T3-L1. Kind of assay: Lipid lowering activity in mouse 3T3-L1 cells assessed as reduction in adipogenic cocktail-induced triglyceride levels at 1 to 10 uM by Oil-Red O staining. It is filed as functional, cell-based. The settings on record: dose 1-10 µM.
The subject of assay [5] is 3T3-L1. Kind of assay: Inhibition of adipogenic cocktail-induced SCD1 protein expression in mouse 3T3-L1 cells incubated for 6 days by Western blot analysis. The settings on record: time 6.0 day. The class given is functional, cell-based. (In general: Immunoblotting shows a protein as a band on a membrane.)
The test system of assay [6] is 3T3-L1. Kind of assay: Inhibition of adipogenic cocktail-induced FAS mRNA expression in mouse 3T3-L1 cells incubated for 6 days by RT-qPCR analysis. The class given is functional, cell-based. Conditions: time 6.0 day.
Assay [7] has as its system 3T3-L1. Kind of assay: Inhibition of cell differentiation in mouse 3T3-L1 cells assessed as reduction in adipogenic cocktail-induced triglyceride levels at 1 uM incubated for 0 to 6 days by GPO-POD assay. The class given is functional, cell-based. Conditions: time 0-6 day.
Assay [8] deals with 3T3-L1. Kind of assay: Inhibition of GR-alpha in mouse 3T3-L1 cells assessed as reduction in methylprednisolone-induced Dexras1 mRNA expression at 1 uM incubated for 4 hrs by RT-qPCR analysis. The class given is cell-based.
Assay [9] has as its system 3T3-L1. Kind of assay: Inhibition of adipogenic cocktail-induced GR-beta nuclear translocation in mouse 3T3-L1 cells at 1 uM after 8 hrs by Western blot analysis. It is filed as cell-based.
In assay [10] the test system is 3T3-L1. Nature of the assay: Inhibition of GR-alpha in mouse 3T3-L1 cells assessed as reduction in GR-alpha interaction with C/EBP-beta at 1 uM incubated for 8 hrs by ChIP assay. The class given is cell-based.
In assay [11] the test system is HepG2. Kind of assay: Lipid lowering activity in human HepG2 cells assessed as reduction in high-glucose induced triglyceride levels at 10 uM incubated for 24 hrs by GPO-POD assay. The class given is functional, cell-based.
Assay [12] relates to 3T3-L1. Nature of the assay: Inhibition of adipogenic cocktail-induced ACC mRNA expression in mouse 3T3-L1 cells incubated for 6 days by RT-qPCR analysis. The class given is functional, cell-based. The settings on record: time 6.0 day.
For assay [13], the system named is 3T3-L1. Kind of assay: Inhibition of adipogenic cocktail-induced ACC mRNA expression in mouse 3T3-L1 cells at 1 uM after 6 days in presence of GR-alpha siRNA by RT-qPCR analysis. It is filed as functional, cell-based. Conditions: time 6.0 day.
The subject of assay [14] is 3T3-L1. Nature of the assay: Inhibition of GR-alpha in mouse 3T3-L1 cells assessed as reduction in adipogenic cocktail-induced Dexras1 mRNA expression at 1 uM incubated for 4 hrs by RT-qPCR analysis. The class given is cell-based.
Assay [15] deals with 3T3-L1. Kind of assay: Inhibition of methylprednisolone-induced PPARgamma mRNA expression in mouse 3T3-L1 cells at 1 uM by RT-qPCR analysis. It is filed as functional, cell-based.
The subject of assay [16] is HepG2. Nature of the assay: Lipid lowering activity in human HepG2 cells assessed as reduction in high-glucose induced triglyceride levels at 1 uM incubated for 24 hrs by GPO-POD assay. The class given is functional, cell-based.
In assay [17] the test system is HepG2. Nature of the assay: Lipid lowering activity in human HepG2 cells assessed as reduction in high-glucose induced triglyceride levels at 1 uM incubated for 6 days in presence of Dexras1 siRNA by GPO-POD assay. It is filed as functional, cell-based. Conditions: time 6.0 day.

For `CC(=O)O[C@@H]1C(C)=C[C@H]2[C@@H]3C(C)(C)[C@]3(OC(=O)C(C)C)[C@H](OC(=O)c3ccccc3)[C@@H](C)[C@]2(O)[C@@H]2C=C(C)C(=O)[C@@H]12`, the inhibition result in the assay on 3T3-L1 [1], with 3T3-L1 [4], in the assay on 3T3-L1 [8], in the assay with 3T3-L1 [10], with HepG2 [11] and in the assay with 3T3-L1 [13] was “Active” each time. Besides, the inhibition entry in the assay on 3T3-L1 [14], with 3T3-L1 [15], in the assay with HepG2 [16] and with HepG2 [17] was “Active” throughout. Besides, the inhibition entry in the assay with 3T3-L1 [2], with 3T3-L1 [7] and in the assay with 3T3-L1 [9] was “inactive” each time. The inhibition entry in the assay with 3T3-L1 [3], with 3T3-L1 [5], with 3T3-L1 [6] and in the assay on 3T3-L1 [12] was “Dose-dependent effect” each time.
`CC1=C[C@@H]2[C@@H](C1=O)[C@H](O)C(C)=C[C@H]1[C@@H]3C(C)(C)[C@]3(OC(=O)C(C)C)[C@H](OC(=O)c3ccccc3)[C@@H](C)[C@]21O`: the inhibition result in the assay with 3T3-L1 [2], in the assay with 3T3-L1 [7] and in the assay on 3T3-L1 [9] was “inactive” throughout. In addition, the inhibition result with 3T3-L1 [3], with 3T3-L1 [5], in the assay on 3T3-L1 [6] and with 3T3-L1 [12] was “Dose-dependent effect” each time. The inhibition entry with 3T3-L1 [4], in the assay on 3T3-L1 [10], in the assay with HepG2 [11], with 3T3-L1 [13] and in the assay with HepG2 [16] was “Active” each time.
